{"source": "patent US11492667B2", "about": "“Compositions and methods for detecting molecular targets on chromosomal DNA” (New England Biolabs, Inc., priority 2020, dated 2022)", "key": {"[1]": {"system": "Nt.CviPII-Protein A fusion", "sequence (as listed by the source)": "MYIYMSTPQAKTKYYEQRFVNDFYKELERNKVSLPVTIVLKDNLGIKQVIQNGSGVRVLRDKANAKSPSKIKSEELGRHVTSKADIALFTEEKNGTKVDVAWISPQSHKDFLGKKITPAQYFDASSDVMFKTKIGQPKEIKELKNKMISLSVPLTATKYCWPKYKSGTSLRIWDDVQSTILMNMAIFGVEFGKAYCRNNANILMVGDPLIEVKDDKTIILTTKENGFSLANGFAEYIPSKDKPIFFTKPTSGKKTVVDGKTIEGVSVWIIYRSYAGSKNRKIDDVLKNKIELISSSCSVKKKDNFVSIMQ", "assay": "Inhibition of nicking activity of Nt.CviPII-Protein A fusion by heparin sodium salt", "type": "biochemical", "details": "2.5 units Nt.CviPII-Protein A, 0.5 μg pUC19, NEBuffer 2, 40 minutes 37° C.", "description": "In lanes 1-9, 2.5 units of NEFP was added to 0.5 μgs of plasmid DNA in the presence of increasing amounts of heparin (0.15-10 mg/ml). Digestion was not observed when 0.3 mg heparin/ml or greater amounts are present.\nTo determine the effect of heparin sodium salt on the inhibition of nicking activities of Nt.CviPII-Protein A fusion, reaction tubes containing 10, 5, 2.5, 1.25, 0.62, 0.31, 0.15, and 0 mg/ml heparin, sodium salt were added to a 50 μl reaction, consisting of 5 μl 10×NEBuffer 2, 2.5 units Nt.CviPII-Protein A (as described in Example 1(B)), and 0.5 μg pUC19 DNA and incubated for 40 minutes 37° C. 10 μl of DNA loading dye mix (5×) was added to the samples and were resolved on a 10% polyacrylamide gel. The gel was stained with SYBR® Green (Molecular Probes, Eugene, Oreg.) and scanned on a Typhoon® imager (GE Healthcare Bio-Sciences, Marlborough, Mass.)."}, "[2]": {"system": "DNA-Nt.CviPII-Protein A complex", "assay": "Gel-shift assay: dissociation of DNA-Nt.CviPII-Protein A complex by heparin", "type": "binding", "description": "From left to right: C is a control that is DNA in the absence of a NEFP or heparin. 0 is a control in which nicking endonuclease was added to DNA in the absence of heparin. The DNA-NEFP complex (DNA-Nt.CviPII-Protein A complex) is seen as a band at the top of the lane.\nTo establish that the inhibitory effect of heparin, sodium salt in untethered Nt.CviPII-Protein A fusion activity was due to selective dissociation between DNA substrate and fusion enzyme, a gel-shift assay was performed. Double stranded DNA substrate containing constant amounts of Nt.CviPII binding domains (CCA, 5′[…]-F, F=fluorescein (SEQ ID NO:9)) and 3.2 μM Nt.CviPII-Protein A fusion were combined in the presence of 1×NEBuffer 2 in the absence of magnesium for 30 minutes at room temperature to enable an enzyme-substrate complex to be formed. Increasing amounts of heparin, sodium salt (0, 2.3, 4.6, […], 20, 42, 83, 166, 330 μg/ml) was added to the total 50 μl reaction volume. It was observed that a heparin concentration of greater than 0.2 mgs/ml (at least […]) enabled complete dissociation of the DNA-Nt.CviPII-Protein A complex as observed by the appearance of bands corresponding to DNA alone in a native 6% retardation gel (Thermo Fisher Scientific, Waltham, Mass.). It was concluded that Heparin causes dissociation Nt.CviPII-Protein A fusions from the bound substrate DNA (FIG. 2B)."}, "[3]": {"system": "antibody-Protein A/G complex", "assay": "Effect of heparin on antibody-Protein A/G complex (magnetic beads, SDS gel)", "type": "binding", "details": "0.125, 0.25, 0.5 and 1 mg/ml Heparin, 30 minutes, room temperature, Sodium Salt", "description": "The numbers on the top indicate added heparin quantity in the reaction mgs/ml.\nAntibody heavy and light chains that are bound to Protein A/G can be released by boiling and resolved on an SDS gel (B). Any antibody that was free in solution having been eluted or displaced by heparin from Protein A/G could be visualized without boiling (E).\nTo determine the effect of heparin on the formation of the antibody-Protein A/G complex, 5 mgs of immobilized and covalently cross-linked protein A/G magnetic beads were bound to 50 μgs of IgG molecules in a 50 μl reaction volume containing 1×PBST at room temperature for 30 minutes. The complex was washed 3 times using 1 ml of 1×PBST and incubated with 0.125, 0.25, 0.5 and 1 mg/ml Heparin for 30 minutes at room temperature in 25 μl total volume. The bead-bound (B) and unbound or bead elution (E) fractions were collected, SDS sample buffer (New England Biolabs, Ipswich, Mass.) was added and the samples were incubated at 95° C. for 5 minutes. Both B and E samples were resolved on tricine 10% acrylamide gel and stained for protein."}, "[4]": {"system": "pBR322 circular double stranded DNA", "assay": "Nicking activity of Protein G/A-gHNH fusion on plasmid DNA (agarose gel)", "type": "biochemical", "details": "1 μg pBR322, NEBuffer 2 with manganese ions, 50 μl, 37° C., 1 hour", "description": "The nicking activity of Protein G-HNH was compared to a second non-fused nicking endonuclease (Nt.CviPII) (2 units) in the same gel to determine a generalized and consistent cleavage profile and was also compared to a control in the lane labeled 0 containing no nicking endonuclease either fused or unfused.\nProtein G/A-gHNH fusion nicking activity was tested on pBR322 circular double stranded DNA using NEBuffer 2 in which magnesium ions were replaced by the same amount of manganese ions (1 mM). 1 μg of plasmid was used with 0.03 to 2 units of Protein G/A-gHNH fusion enzyme in a two-fold serial dilutions (2, 1, 0.5, 0.25, 0.125, 0.06, 0.03 units) in a total volume of 50 μl incubated at 37° C. for 1 hour. 10 μl of DNA loading dye mix (5×) was added to the nicked DNA. The nicked DNA samples were resolved on a 1% agarose gel and visualized under UV light. DNA fragment size was estimated along with 2 log DNA ladder (New England Biolabs, Ipswich, Mass.) and positive control Nt.CviPII (2 units) of the non-fused nicking endonuclease, (New England Biolabs, Ipswich, Mass.) digested pBR322 DNA (FIG. 1B). […] A representative figure supporting this conclusion is provided in FIG. 1B for Protein G-gHNH fusions."}}}
{"molecule": "Heparin Sodium Salt", "values": [{"measurement": "heparin concentration giving total inhibition of nicking (no digestion)", "setting": "[1]", "result": "0.15 to 0.31", "unit": "mg/mL"}, {"measurement": "heparin concentration giving total inhibition of nicking (no digestion)", "setting": "[1]; listed as heparin", "result": "≥ 0.3", "unit": "mg/mL"}, {"measurement": "heparin concentration enabling complete dissociation of the DNA-Nt.CviPII-Protein A complex", "setting": "[2]; 3.2 μM Nt.CviPII-Protein A, fluorescein dsDNA, NEBuffer 2 without magnesium, room temperature", "result": "greater than 0.2 mgs/ml"}, {"measurement": "heparin concentration at which NEFP is released entirely from the DNA", "setting": "[2]; FIG. 2B legend, buffer without magnesium ions", "result": "> 4.6", "unit": "mg/mL"}, {"measurement": "effect of heparin on antibody bound to Protein A/G beads", "setting": "[3]; listed as Heparin", "result": "cannot dissociate Protein A/G-antibody reaction"}, {"measurement": "effect of heparin on antibody bound to Protein A/G beads", "setting": "[3]; listed as heparin", "result": "no elution or displacement of antibody occurred"}]}
{"molecule": "Protein G-gHNH: NEFP: Protein G fused via linker to gHNH nicking endonuclease, SEQ ID NO: 5 (protein) MKGETTTEAVDAATAEKVFKQYANDNGVDGEWTYDDATKTFTVTEKPEVIDASELTPAVTTYKLVINGKTLKGETTTEAVDAATAEKVFKQYANDNGVDGEWTYDDATKTFTVTEKPEVIDASELTPAVTTYKLVINGKTLKGETTTKAVDAETAEKAFKQYANDNGVDGVWTYDDATKTFTVTEGSATIVKKPLRPCCEFHCYNLTRERYCEEHRYKEKETQQDKNRYYDRFKRDKESTAFYRSKAWERLREQALMRDKGLCLHCKNNRKIKVADMVDHIIPIKVDPSLKLKLENLQSLCNPCHNRKTAEDKKKYG", "values": [{"measurement": "amount of fusion enzyme giving partial digestion of the DNA", "setting": "[4]", "result": 0.03, "unit": "units"}]}
